{"source": "patent US4753928A", "about": "“Process for obtaining sexual products from mammals suitable for natural or artificial fertilization” (INNOFINANCE Altalanos Innovacios Pengintezet, priority 1985, dated 1988)", "key": {"[1]": {"system": "intact ovaries in organ culture", "experiment": "Production of ova in cattle in vitro from ovary organ culture", "format": "cell-based", "settings": "10^-9 -10^-8 g/ml; spontaneous ovulations and punctured ova", "procedure": "Cattle in slaughter-house was stunned and bled, after which intact ovaries were removed within 30-55 minutes. Then in laboratory conditions they were placed in […]. To this culture liquid D-Phe^6, Gln^8, desGly^10 -GnRH ethyl-amide was given in a concentration of 10^-9 -10^-8 g/ml. Ovary stock took 16 to 43 hours to ovulate in organ culture. Out of the spontaneous ovulations of in vitro ovaries and from ova obtained with puncturing 85% were capable to continue meiosis (reductive cell division) and to be successfully fertilized in vitro by tractable sperms of cattle."}, "female wild cats": {"system": "female wild cats", "experiment": "Cancelling seasonal unoestrus in adult wild cat", "format": "in vivo, Felis silvestris", "settings": "after 4 days; i.m. 100 μg then 500 μg two hours later, repeated after 48 hours", "procedure": "2 female wild cats from Zoo, with an average weight of 6 kg and having under normal conditions a cycle between February and March, were treated with D-Phe^6, Gln^8, desGly^10 -GnRH ethyl-amide. Before treatments began, abdominal cavity was opened under narcosis in order to see the condition of both ovaries. After sewing up the abdomen, animals were treated every second day, four times in total through intramuscular injection of the active ingredient diluted in normal saline solution. A two-hour interal was kept between the first and second injection; the first dose was 100 μg, the second one 500 μg. This was followed after 48 hours by the third dose of 100 μg, then two hours later by the fourth dose of 500 μg. On the 0., 2., 4. and 8th day of the treatment abdomen was opened under narcosis and changes in condition of the ovaries were visually evaluated. After treatment both ovaries were removed, fixed and their hystological evaluation was carried out.\nOn the 0. day of the treatment on left side ovary of both animals 3-4 supposed secondary follicles and 1 degenerated old corpus luteum, while on the right side ovary 5-6 supposed secondary follicles could be seen. […]"}, "infant calves": {"system": "infant calves", "experiment": "Inducing super-ovulation in infant cattle", "format": "in vivo", "procedure": "8 65-old day infant calves were treated for 8 days, three times daily, with 2 μg of D-Phe^6, Gln^8, desGly^10 -GnRH ethylamide each. After a day of rest, on the 10th day 100 μg active ingredient was administered each intramuscularly. Following the last injection, ovaries from both sides were removed; generally 5-11 developed Graf-follicles were registered in each ovary. 50% of the follicles were already past the stage when tight to the touch, i.e. they were follicles just prior to ovulation."}, "[2]": {"system": "subordinate male chimpanzees", "experiment": "Treating physiological oligospermia of chimpanzee", "format": "in vivo", "procedure": "In our case, apart from sperm obtained from the dominant males, that was stored in sperm bank, we had to have expressly, for the purpose of insemination, sperm from the 4 subordinate males (all sexually mature). Before the treatment began, all animals were ejaculated under narcosis through electric shock method. Density and motility of the ejaculate was evaluated under microscope, then it was put under deep freeze probe (-196° C.). […] Thereafter male chimpanzees weighing 60 to 90 kilograms were administered intramuscularly 100 μg of D-Phe^6, Gln^8, desGly^10 -GnRH ethylamide diluted in 1 ml of normal saline solution using compressed air injection technique. […] Qualitative and quantitative characteristics of the ejaculates were similar to those obtained from the dominant male and to values published in technical literature.\nAfter diluting the ejaculate in a 1:1 ratio, deep-freeze test was positive and the 60% motility decreased to only 45%. Sperms of this quality either fresh or in deep freeze are entirely suitable for the purposes of insemination."}, "Bengalian tiger": {"system": "Bengalian tiger", "experiment": "Stimulating normospermia to hyperspermia in Bengalian tiger", "format": "in vivo", "procedure": "A 8-year old Bengalian tiger of a weight of 200 kg belonging to Zoo copulated regularly, its mate becoming pregnant regularly for years. With this knowledge, under narcosis and in the mating season sperm sample was taken electrically and it was established that the sample density reached 3, motility was 30% and quantity of ejaculate amounted to 0.2 ml. […] Deep freezing of such minute quantity of ejaculate, however, is for technical reasons not possible. In order to protect the animal and to avoid liver damage, narcosis can be repeated every four days at the most and kept on for 4-5 hours. Collecting of sperms this way is unaccomplishable. In our process the male was separated from the female and was treated daily for 12 days with 10 μg each of D-Phe^6, Gln^8, DesGly^10 -GnRH ethyl-amide which was diluted in 1 ml of normal saline solution and administered intramuscularly, using compressed air injection technique. On the 12th day, through electrical means the animal was ejaculated under narcosis twice with an hour time interval; in this way 1 ml and 0.8 ml of sperms were obtained. The two samples were combined and examined; a density of 4 was established, motility being 70%. Sperm samples were deep frozen and 21 doses suitable for artificial fertilization were prepared."}, "male orang-utan": {"system": "male orang-utan", "experiment": "Treating aspermia caused by non-natural keeping in orang-utan", "format": "in vivo", "settings": "47th day", "description": "A 18-year old, male orang-utan of a weight of ca. […] and belonging to Zoo came into captivity in its infancy. Till the treatment it had three owners. […] It has been living in its present location for the past 11 years, it had neither a companion of his own kind nor a mate. […] The Zoo has been contacted that in case the animal is of Bornean Sub-species and fertile, it would be purchased. […] A factor questioning fertility in the case-history was the absence of aggressiveness typical of the male primates and the ceasing of regular masturbation during hospitalization 5-6 years before. Sperm sample was taken from the animal under narcosis, using electrical means. In the ejaculate secretion of the side gonads was exclusively found, in three parts 1--1 droplet, altogether a quantity of 0.1 ml.\nThereafter the animal was treated twice weekly with a dose of 100 μg D-Phe^6, Gln^8, DesGly^10 -GnRH ethylamide, i.e. similarly to the method used in Example 11. During treatment movement of the animal became more live and active. This, however, could not be attributed to the growth of libido, since it could have been caused by the fear from firing airgun injector. Treatment was finished on the 47th day following the first shot and ejaculate was taken twice under renewed narcosis and one hour interval; in this way altogether 3.2 ml of sperms were obtained. Density of sperm was 3, motility 35%. Amount of degenerated sperms reached 20%, practically made up of entirely young development forms (neck and middle part plasma droplets)."}, "female lambs": {"system": "female lambs", "experiment": "Inducing super-ovulation in infant sheep", "format": "in vivo", "settings": "10 μg twice daily 5 days i.m., 70 μg on 6th day; 50-day old lambs", "procedure": "10 50-day old female lambs were administered each intramuscularly twice daily for 5 days 10 μg doses each of D-Phe^6, Gln^8, desGly^10 -GnRH ethylamide. […] Evaluation of treated and untreated control animals was carried out with the aid of laparoscopy. The results were similar to those outlined in Examples 1 to 4."}, "Siberian tiger male": {"system": "Siberian tiger male", "experiment": "Treating Siberian tiger infertile owing to degenerated spermatogeny", "format": "in vivo", "description": "A 8-year old Siberian tiger male of 120 kg and belonging to Zoo has lived with its mate for three years. Regular copulations took place on oestrus of the female, but no offspring was produced in any year. The possiblity that the female was at fault had to be excluded because previously she had pregnancy from an other male and the young ones born were reared as well. From the male in question through electrical means ejaculate was obtained under narcosis and it was established that it was very thin, 4-5 degenerate, vibrating sperms could be seen in each field of vision. Forms of degeneration were characteristic of the younger phases of spermiogenesis. Thereafter the animal was treated oncy weekly intramuscularly with a 100 μg dose of D-Phe^6, Trp^7, Leu^8 -GnRH diluted in normal saline solution of 1 ml, using the compressed air injection technique. The male was kept with its mate and they copulated regularly during the treatments. […] Calculating from the time of birth, fertile copulation ensued 40-50 days following the first treatment."}, "[3]": {"system": "ovary of domestic cat kittens", "experiment": "Stimulating function of ovary in domestic cat (D-Phe6,Trp7,Leu8-GnRH)", "format": "in vivo", "settings": "100 μg i.m. every second day, three times; 45 days old kittens", "procedure": "5 kittens each weighing 0.3 kg and being 45 days old were treated with D-Phe^6, Trp^7, Leu^8 -GnRH analogue in such a way that prior to treatments the left side ovary was removed under narcosis. Then the […] were treated every second day, three times in all with doses of 100 μg each of the active ingredient diluted in normal saline solution administered intramuscularly. After treatment the remaining right side ovaries were removed, examined visually, then, after fixing, hystological examination was carried out.\nOvaries removed prior to treatment were quite homogeneous, butter-yellow in colour, growing follicle could not be detected in them either visually or hystologically. Following treatment 7-8 corpora haemorrhagica and several (not countable) growing follicles were found."}}, "note": "Values joined by “and” are separate entries in the source; they are usually repeats but may differ in a detail not shown here. Equal values may be shown once. Where a SMILES comes first, the peptide text is derived from it. [ ]: non-standard residue; d: D form. pGlu = O=C1CC[C@@H](C(=O)O)N1", "data": [{"smiles": "CCNC(=O)[C@@H]1CCCN1C(=O)[C@H](CCC(N)=O)NC(=O)[C@H](CC(C)C)NC(=O)[C@@H](Cc1ccccc1)NC(=O)[C@H](Cc1ccc(O)cc1)NC(=O)[C@H](CO)NC(=O)[C@H](Cc1c[nH]c2ccccc12)NC(=O)[C@H](Cc1c[nH]cn1)NC(=O)[C@@H]1CCC(=O)N1", "note": "[D-Phe^6, Gln^8, desGly^10 -GnRH ethylamide] ([pGlu]HWSY[dF]LQP-NHEt)", "values": [{"measurement": "ova capable to continue meiosis and to be fertilized in vitro", "setting": "[1]", "result": 85, "unit": "%"}, {"measurement": "development of secondary follicles", "setting": "female wild cats", "result": "all secondary follicles turned into Graf-follicles ovulated"}, {"measurement": "developed Graf-follicles in each ovary", "setting": "infant calves; 2 μg three times daily 8 days, 100 μg i.m. on 10th day, 65-day old calves", "result": "5-11"}, {"measurement": "follicles just prior to ovulation", "setting": "infant calves; same treatment", "result": 50, "unit": "%"}, {"measurement": "motility of ejaculate after deep freeze test", "setting": "[2]; 4 weeks after first treatment", "result": "less than 10%"}, {"measurement": "young sperm formations in ejaculate", "setting": "[2]; 4 weeks after first treatment, 100 μg i.m.", "result": "40-60%"}, {"measurement": "defective sperms", "setting": "[2]; 60 days after first treatment", "result": "below 30%"}, {"measurement": "sperm motility", "setting": "[2]; 60 days after first treatment", "result": "exceeded 60%"}, {"measurement": "motility after deep-freeze test", "setting": "[2]; 60 days, ejaculate diluted 1:1", "result": 45, "unit": "%"}, {"measurement": "density of combined sample", "setting": "Bengalian tiger; 12th day", "result": 4}, {"measurement": "sperm motility", "setting": "Bengalian tiger; 12th day, combined sample", "result": 70, "unit": "%"}, {"measurement": "sperm volume obtained per ejaculation", "setting": "Bengalian tiger; 12th day, 10 μg daily i.m. for 12 days, two ejaculations one hour apart, 0.2 ml before treatment, Gln^8, DesGly^10 -GnRH ethyl-amide", "result": "1 mL and 0.8 mL"}, {"measurement": "motility of remelting sperms", "setting": "Bengalian tiger; after deep freezing", "result": 60, "unit": "%"}, {"measurement": "doses suitable for artificial fertilization prepared", "setting": "Bengalian tiger; deep frozen samples", "result": 21}, {"measurement": "degenerated sperms", "setting": "male orang-utan", "result": 20, "unit": "%"}, {"measurement": "density of sperm", "setting": "male orang-utan", "result": 3}, {"measurement": "sperm motility", "setting": "male orang-utan", "result": 35, "unit": "%"}, {"measurement": "sperm volume obtained altogether", "setting": "male orang-utan; 100 μg twice weekly, two ejaculations", "result": 3.2, "unit": "mL"}, {"measurement": "ovulations in each animal", "setting": "female lambs", "result": "3-9"}]}, {"smiles": "CC(C)C[C@H](NC(=O)[C@H](Cc1c[nH]c2ccccc12)NC(=O)[C@@H](Cc1ccccc1)NC(=O)[C@H](Cc1ccc(O)cc1)NC(=O)[C@H](CO)NC(=O)[C@H](Cc1c[nH]c2ccccc12)NC(=O)[C@H](Cc1c[nH]cn1)NC(=O)[C@@H]1CCC(=O)N1)C(=O)N1CCC[C@H]1C(=O)NCC(N)=O", "note": "[D-Phe^6, Trp^7, Leu^8 -GnRH] ([pGlu]HWSY[dF]WLPG-NH2)", "values": [{"measurement": "pregnancy of mate / offspring", "setting": "Siberian tiger male; 100 μg once weekly i.m.", "result": "The female became pregnant, producing three healthy offsprings"}, {"measurement": "time of fertile copulation following the first treatment", "setting": "Siberian tiger male; calculated from time of birth", "result": "40 to 50", "unit": "days"}, {"measurement": "corpora haemorrhagica on remaining ovary", "setting": "[3]", "result": "7-8"}]}]}
